Reference: PubChem BioAssay AID250 (DTP/NCI, 2004)
Several values for one entry are separate records, joined by “and”; a condition that tells them apart may be missing. Identical values can stand only once. Inconclusive results and toxic doses are left out.

Tested on: BDF1 mice, L1210 leukemia sc, survival T/C
Test: NCI In Vivo Anticancer Drug Screen. Data for tumor model L1210 Leukemia (subcutaneous) in B6D2F1 (BDF1) mice
Details: endpoint: median survival time, higher = longer survival
Procedure, shortened: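 Expressed as T/C: measurement in compound-treated, tumor-bearing mice relative to vehicle-treated control mice, based on survival or tumor size.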

[1] = dose: 6.0 mg/kg/injection, schedule: Q01DX Z (sc), vehicle: methylcellulose (MC)
[2] = dose: 12.0 mg/kg/injection, schedule: Q01DX Z (sc), vehicle: methylcellulose (MC)
[3] = dose: 24.0 mg/kg/injection, schedule: Q01DX Z (sc), vehicle: methylcellulose (MC)
[4] = dose: 65.0 mg/kg/injection, schedule: Q01DX Z (sc), vehicle: methylcellulose (MC)
[5] = dose: 108.0 mg/kg/injection, schedule: Q01DX Z (sc), vehicle: methylcellulose (MC)
[6] = dose: 180.0 mg/kg/injection, schedule: Q01DX Z (sc), vehicle: methylcellulose (MC)
[7] = dose: 300.0 mg/kg/injection, schedule: Q01DX Z (sc), vehicle: methylcellulose (MC)
[8] = dose: 1.8 mg/kg/injection, schedule: Q01DX Z (sc), vehicle: saline
[9] = dose: 3.0 mg/kg/injection, schedule: Q01DX Z (sc), vehicle: saline
[10] = dose: 5.0 mg/kg/injection, schedule: Q01DX Z (sc), vehicle: saline
[11] = dose: 14.0 mg/kg/injection, schedule: Q01DX Z (sc), vehicle: saline
[12] = dose: 23.0 mg/kg/injection, schedule: Q01DX Z (sc), vehicle: methylcellulose (MC)
[13] = dose: 23.0 mg/kg/injection, schedule: Q01DX Z (sc), vehicle: saline
[14] = dose: 39.0 mg/kg/injection, schedule: Q01DX Z (sc), vehicle: methylcellulose (MC)
[15] = dose: 39.0 mg/kg/injection, schedule: Q01DX Z (sc), vehicle: saline
[16] = dose: 38.9 mg/kg/injection, schedule: Q01DX Z (sc), vehicle: methylcellulose (MC)
[17] = dose: 64.8 mg/kg/injection, schedule: Q01DX Z (sc), vehicle: methylcellulose (MC)

In the case of `CCOC(=O)NP(=O)(N1CC1)N1CC1`, the T/C (dose: 5.0 mg/kg/injection, schedule: Q01DX Z (sc), vehicle: water) is reported as 120 % of control, the T/C (dose: 14.0 mg/kg/injection, schedule: Q01DX Z (sc), vehicle: water) is reported as 150 % of control and the T/C (dose: 23.0 mg/kg/injection, schedule: Q02DX Z (sc), vehicle: water) is reported as 170 % of control. The T/C (dose: 23.0 mg/kg/injection, schedule: Q## X Z (sc), vehicle: water) was 165 % of control, the T/C (dose: 39.0 mg/kg/injection, schedule: Q01DX001 (sc), vehicle: water) was 160 % of control and the T/C (dose: 39.0 mg/kg/injection, schedule: Q07DX Z (sc), vehicle: water) was 150 % of control.
With `COC(=O)Nc1nc2ccc(C(=O)c3cccs3)cc2[nH]1` the T/C (dose: 50.0 mg/kg/injection, schedule: Q04DX003 (ip), vehicle: other) was 118 % of control, the T/C (dose: 70.0 mg/kg/injection, schedule: Q04DX003 (iv), vehicle: other) was 161 % of control and the T/C (dose: 100.0 mg/kg/injection, schedule: Q04DX003 (iv), vehicle: other) was 151 % of control.
`O=C1CCC(N2C(=O)c3ccccc3C2=O)C(=O)N1` (stereo unspecified) was tested, and the T/C [1] was 100 % of control, the T/C [2] was 100 % of control and the T/C [3] was 100 % of control. The T/C (dose: 48.0 mg/kg/injection, schedule: Q01DX Z (sc), vehicle: methylcellulose (MC)) was 100 % of control, the T/C [4] was 100 % of control and the T/C [5] was 94 % of control. For the same molecule, the T/C [6] was 88 % of control, the T/C [7] was 100 % of control and the T/C (dose: 500.0 mg/kg/injection, schedule: Q01DX Z (sc), vehicle: methylcellulose (MC)) was 100 % of control.
In the case of `C[n+]1c2ccccc2nc2c(N)cc(N)cc21`, the T/C [8] is reported as 100 % of control, the T/C [9] is reported as 100 % of control and the T/C [10] is reported as 100 % of control. The T/C (dose: 8.4 mg/kg/injection, schedule: Q01DX Z (sc), vehicle: saline) was 100 % of control, the T/C [11] was 100 % of control and the T/C [12] was 105 % of control. The T/C [13] was 111 % of control, the T/C [14] was 105 % of control and the T/C [15] was 111 % of control. The T/C [4] was 105 % of control.
With `CC(=O)Nc1ccc2nc3ccc(NC(C)=O)cc3[n+](-c3ccccc3)c2c1` the T/C [12] was 105 % of control and the T/C [4] was 105 % of control.
In the case of `C=CC(CO)N1CC1` (stereo unspecified), the T/C (dose: 1.08 mg/kg/injection, schedule: Q01DX Z (sc), vehicle: saline) is reported as 100 % of control, the T/C [8] is reported as 100 % of control and the T/C (dose: 1.8 mg/kg/injection, schedule: Q02DX Z (sc), vehicle: saline) is reported as 100 % of control. The T/C [9] was 100 % of control, the T/C (dose: 3.0 mg/kg/injection, schedule: Q02DX Z (sc), vehicle: saline) was 105 % of control and the T/C [10] was 90 % of control and 100 % of control. The T/C (dose: 5.0 mg/kg/injection, schedule: Q02DX Z (sc), vehicle: saline) was 100 % of control, the T/C (dose: 5.0 mg/kg/injection, schedule: Q## X Z (sc), vehicle: saline) was 100 % of control and the T/C (dose: 7.8 mg/kg/injection, schedule: Q01DX Z (sc), vehicle: saline) was 100 % of control. The T/C (dose: 8.4 mg/kg/injection, schedule: Q01DX001 (sc), vehicle: saline) was 100 % of control, the T/C (dose: 8.4 mg/kg/injection, schedule: Q02DX Z (sc), vehicle: saline) was 100 % of control and the T/C (dose: 8.4 mg/kg/injection, schedule: Q## X Z (sc), vehicle: saline) was 100 % of control. The T/C (dose: 14.0 mg/kg/injection, schedule: Q01DX001 (sc), vehicle: saline) was 100 % of control, the T/C [11] was 100 % of control and the T/C (dose: 14.0 mg/kg/injection, schedule: Q02DX Z (sc), vehicle: saline) was 100 % of control. The T/C (dose: 14.0 mg/kg/injection, schedule: Q## X Z (sc), vehicle: saline) was 100 % of control, the T/C (dose: 23.0 mg/kg/injection, schedule: Q01DX001 (sc), vehicle: saline) was 100 % of control and the T/C [13] was 90 % of control and 110 % of control. For the same molecule, the T/C (dose: 23.0 mg/kg/injection, schedule: Q02DX Z (sc), vehicle: saline) was 100 % of control, the T/C (dose: 23.0 mg/kg/injection, schedule: Q## X Z (sc), vehicle: saline) was 100 % of control and the T/C (dose: 36.0 mg/kg/injection, schedule: Q01DX Z (sc), vehicle: saline) was 105 % of control. For the same molecule, the T/C (dose: 37.0 mg/kg/injection, schedule: Q02DX Z (sc), vehicle: saline) was 100 % of control, the T/C (dose: 39.0 mg/kg/injection, schedule: Q01DX001 (sc), vehicle: saline) was 110 % of control and the T/C [15] was 95 % of control and 100 % of control. The T/C (dose: 39.0 mg/kg/injection, schedule: Q## X Z (sc), vehicle: saline) was 100 % of control, the T/C (dose: 65.0 mg/kg/injection, schedule: Q01DX001 (sc), vehicle: saline) was 120 % of control and the T/C (dose: 65.0 mg/kg/injection, schedule: Q02DX Z (sc), vehicle: saline) was 100 % of control. The T/C (dose: 65.0 mg/kg/injection, schedule: Q## X Z (sc), vehicle: saline) was 120 % of control, the T/C (dose: 108.0 mg/kg/injection, schedule: Q01DX001 (sc), vehicle: saline) was 115 % of control and the T/C (dose: 108.0 mg/kg/injection, schedule: Q## X Z (sc), vehicle: saline) was 115 % of control.
`CC(C)CSc1ncnc2nc[nH]c12` was tested, and the T/C [16] was 100 % of control, the T/C [17] was 100 % of control and the T/C [5] was 100 % of control.
For `O=C(Nc1ccc(NC(=O)Nc2cccc(C3=NCCN3)c2)cc1)Nc1cccc(C2=NCCN2)c1`, the T/C [13] was 100 % of control, the T/C [15] was 110 % of control and the T/C (dose: 65.0 mg/kg/injection, schedule: Q01DX Z (sc), vehicle: saline) was 100 % of control. For the same molecule, the T/C (dose: 108.0 mg/kg/injection, schedule: Q01DX Z (sc), vehicle: saline) was 95 % of control, the T/C (dose: 180.0 mg/kg/injection, schedule: Q01DX Z (sc), vehicle: saline) was 100 % of control and the T/C (dose: 300.0 mg/kg/injection, schedule: Q01DX Z (sc), vehicle: saline) was 100 % of control.
For `Cn1cc(NC(=O)c2cc(NC(=O)CN=C(N)N)cn2C)cc1C(=O)NCCC(=N)N`, the T/C [1] was 100 % of control, the T/C [2] was 100 % of control and the T/C [3] was 100 % of control.
For `CCCn1cnc2c(=S)nc(N)[nH]c21`, the T/C (dose: 0.65 mg/kg/injection, schedule: Q01DX Z (sc), vehicle: methylcellulose (MC)) was 100 % of control, the T/C (dose: 0.65 mg/kg/injection, schedule: Q01DX Z (sc), vehicle: other) was 100 % of control and the T/C (dose: 1.08 mg/kg/injection, schedule: Q01DX Z (sc), vehicle: methylcellulose (MC)) was 100 % of control. The T/C (dose: 1.08 mg/kg/injection, schedule: Q01DX Z (sc), vehicle: other) was 100 % of control, the T/C (dose: 1.8 mg/kg/injection, schedule: Q01DX Z (sc), vehicle: methylcellulose (MC)) was 100 % of control and the T/C (dose: 1.8 mg/kg/injection, schedule: Q01DX Z (sc), vehicle: other) was 105 % of control. For the same molecule, the T/C (dose: 3.0 mg/kg/injection, schedule: Q01DX Z (sc), vehicle: methylcellulose (MC)) was 111 % of control, the T/C (dose: 3.0 mg/kg/injection, schedule: Q01DX Z (sc), vehicle: other) was 111 % of control and the T/C (dose: 5.0 mg/kg/injection, schedule: Q01DX Z (sc), vehicle: methylcellulose (MC)) was 111 % of control. The T/C (dose: 5.0 mg/kg/injection, schedule: Q01DX Z (sc), vehicle: other) was 122 % of control, the T/C (dose: 8.4 mg/kg/injection, schedule: Q01DX Z (sc), vehicle: methylcellulose (MC)) was 122 % of control and the T/C (dose: 8.4 mg/kg/injection, schedule: Q01DX Z (sc), vehicle: other) was 155 % of control. The T/C (dose: 14.0 mg/kg/injection, schedule: Q01DX Z (sc), vehicle: other) was 161 % of control, the T/C (dose: 230.0 mg/kg/injection, schedule: Q01DX Z (sc), vehicle: other) was 155 % of control and the T/C (dose: 390.0 mg/kg/injection, schedule: Q01DX Z (sc), vehicle: other) was 150 % of control.
`C[C@]12CCC(=O)C=C1CC[C@H]1[C@@H]3CC[C@](O)(C(=O)CO)[C@@]3(C)C[C@H](O)[C@@]12F` was tested, and the T/C [14] was 100 % of control, the T/C [4] was 100 % of control and the T/C [5] was 100 % of control. For the same molecule, the T/C [6] was 100 % of control, the T/C [7] was 100 % of control and 118 % of control and the T/C (dose: 833.0 mg/kg/injection, schedule: Q01DX Z (sc), vehicle: methylcellulose (MC)) was 112 % of control.
In the case of `CC(C)Sc1ncnc2nc[nH]c12`, the T/C [16] is reported as 110 % of control, the T/C [17] is reported as 155 % of control and the T/C [5] is reported as 155 % of control.
